For data set [1], the target named is T1, USP2 (Homo sapiens, UniProt O75604).
T1 construct: His tag
T1 sequence (O75604 259-605): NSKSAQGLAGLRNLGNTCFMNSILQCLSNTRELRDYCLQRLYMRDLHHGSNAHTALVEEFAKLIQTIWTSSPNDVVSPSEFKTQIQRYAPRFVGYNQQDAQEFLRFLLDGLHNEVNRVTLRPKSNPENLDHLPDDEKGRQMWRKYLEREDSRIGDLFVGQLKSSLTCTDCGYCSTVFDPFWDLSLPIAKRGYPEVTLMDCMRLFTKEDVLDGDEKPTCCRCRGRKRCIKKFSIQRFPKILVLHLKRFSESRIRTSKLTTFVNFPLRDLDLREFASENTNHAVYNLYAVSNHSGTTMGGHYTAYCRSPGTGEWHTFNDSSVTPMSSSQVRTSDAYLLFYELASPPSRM
Nature of the data set: hUSP2 Ub-rhodamine 110 assay. The data set is classed as biochemical. The note with it: arithmetic means of multiple measurements; read-out: IC50 hUSP2 Ub-Rhod. The procedure: The final assay volume was 6 μL.

Data set [2] addresses T2, USP21 (Homo sapiens, UniProt Q9UK80).
T2 sequence (Q9UK80 1-565): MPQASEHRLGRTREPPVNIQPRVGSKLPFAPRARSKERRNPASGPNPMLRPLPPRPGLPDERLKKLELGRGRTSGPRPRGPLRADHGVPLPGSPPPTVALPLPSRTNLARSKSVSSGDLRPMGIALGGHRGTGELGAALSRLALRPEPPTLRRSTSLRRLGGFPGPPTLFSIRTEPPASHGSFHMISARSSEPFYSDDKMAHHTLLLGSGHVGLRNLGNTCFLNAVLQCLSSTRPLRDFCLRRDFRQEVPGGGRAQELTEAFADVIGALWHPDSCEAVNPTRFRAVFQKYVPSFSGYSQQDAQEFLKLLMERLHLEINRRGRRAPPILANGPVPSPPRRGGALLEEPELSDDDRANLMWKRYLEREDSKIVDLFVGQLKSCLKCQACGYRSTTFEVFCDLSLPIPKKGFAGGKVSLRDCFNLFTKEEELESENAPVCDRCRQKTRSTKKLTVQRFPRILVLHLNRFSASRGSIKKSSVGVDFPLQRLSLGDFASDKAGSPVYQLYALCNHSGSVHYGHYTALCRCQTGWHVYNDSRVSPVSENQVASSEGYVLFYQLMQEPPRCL
Description: The final assay volume was 6 μL. […] First, 2 μL of 1 nM USP21 (or selectivity enzyme) solution was added to the compound plate and preincubated for 15–20 min at room temperature. […] The reaction was stopped by 50 mM citric acid in 25 mM HEPES, pH 7.5, containing 0.01% BSA. […] The USP21 and USP22 were measured with five flashes and USP2 and USP7 in fly mode.

For data set [3], the target named is T2, USP21. This is another data set of the same source.
Description: To this end, we developed a USP21 activity assay that is based on the deubiquitination of a STING-derived peptide (a USP21-specific substrate[17],[18]) by purified recombinant human full-length USP21 using time-resolved fluorescence resonance energy transfer (TR-FRET) technology (referred to as a homogeneous time-resolved fluorescence (HTRF)-assay, for details see the Supporting Information).[39]
All substrate and enzyme solutions were diluted in an assay buffer. […] Incubation time was 15–20 min at room temperature. […] The stop solution (DUB inhibitor PR619, Abcam) was prepared in 25 mM HEPES, pH 7.5 (Alfa Aesar) containing 0.01% BSA and then left for 10 min at room temperature before filtering with a 0.2 μM PES Membrane (Thermo Fisher). The reaction was stopped with the addition of 2 μL of 200 μM PR619. […] The plates were measured on the ViewLux in screening or PHERAstar FSX in compound profiling. […] The number of flashes per well was set to 3. All of the experimental data were plotted using Genedata analysis. The Z′-factor and S/B of the assay were >0.7 and ∼2, respectively.
Data set [4] is described as follows: log D measurement (HPLC). The data set is classed as physicochemical. The note with it: reverse-phase HPLC, pH 7.5, pH 7.5, HPLC method; read-out: logD7.5. The method, then: log D values at pH 7.5 were recorded using an indirect method for determining hydrophobicity constants by reverse-phase HPLC. A series of compounds with well-known log D values were used for calibration. Test compounds were injected into the same HPLC system. The lipophilicity of compounds was then assessed by comparison to the calibration curve.

For data set [5], the target named is T2, USP21. The experiment in a line: Thermal shift assay (TSA). Also noted: purchased Ubiquigent (DUBprofiler service). The note with it: 100 μM compound. It counts as binding. The method, then:
Experiments were carried out with the QuantStudio7 Flex Real-Time PCR system (Thermo Fisher Scientific) in a 384-well plate format with 5 μL of reaction volume. Melting curves were obtained at an USP21 protein concentration of 3.8 μM and 5xSYPRO Orange (Invitrogen) using a buffer containing 20 mM Tris, pH 7.5; 150 mM NaCl; 10% glycerol; and 1.0 mM TCEP. […] For binding experiments, compounds were added from 10 mM stock solution to a final concentration of 100 μM. As a control, 1% DMSO was used. Scans were measured from 25 to 95 °C at a scanning rate of 4 °C/min. All TSA data were analyzed using a Genedata Assay Analyzer.

The target of data set [6] is T3, USP21 (Homo sapiens, UniProt Q9UK80).
T3 construct: made in house; host or cells: E. coli BL21(DE3)
Nature of the data set: SPR binding. The note with it: single-cycle kinetics, 15 °C.
Description: For binding analysis, a multi-cycle protocol was chosen with a contact time of 60 s, a flow rate of 30 μL/min, and a dissociation time of 200 s. Binding constants were calculated from the steady state using Biacore Insight Evaluation Software, assuming a 1:1 binding model as an average of four titrations. […] Immobilization levels were kept similar to the above. […] The running buffer of the duplicate measurements is 10 mM HEPES, pH 7.4, 150 mM NaCl, 0,005% surfactant P20 further supplemented with 2 mg/mL BSA and 1% DMSO. Affinity and kinetic analysis were performed using Biacore Insight Evaluation Software on double reference subtracted sensorgrams.

Data set [7] can be described thus: Aqueous solubility. The note with it: PBS pH 6.5, pH 6.5, PBS pH 6.5. The data set is classed as physicochemical. The method, then: Test compounds were applied as DMSO solutions or directly from powder. After the addition of the buffer, solutions were shaken at rt for 24 h. The undissolved material was removed by filtration or centrifugation. The compound dissolved in the supernatant was quantified by HPLC-UV or HPLC-MS/MS.

The target of data set [8] is T4, C-terminal HiBiT-tagged USP21 (Homo sapiens, UniProt Q9UK80).
T4 construct: expressed in transfected cells; host or cells: HEK293T
T4 sequence (Q9UK80 1-565): T2 sequence (Q9UK80 1-565)
Nature of the data set: USP21 HiBiT CETSA. It counts as cell-based. The conditions noted are these: 49 °C, HEK293T cells. The procedure: In particular, we utilized a HiBiT CETSA assay format[42],[43] conducted in intact HEK293T cells. Cells were transfected with USP21 fused to a small proluminescent NanoLuc HiBiT tag, which, when complemented with the Large BiT NanoLuc fragment, produces a quantifiable luminescence signal.
HEK293T cells were seeded in a six-well plate at 8 × 10^5 cells/well in 2 mL of DMEM supplemented with 10% FBS, penicillin (100 U/mL), and streptomycin (100 μg/mL) and transfected 4 h after seeding using an X-tremeGENE HP transfection reagent, following the manufacturer’s instructions with a total of 2 μg of plasmid constructs (C-terminally tagged USP21 HiBiT and empty pCDNA3.1 vector). […] The breathable paper adhesive film was then replaced with a PCR adhesive film, and cells were heated at indicated temperatures in an Applied Biosystems VeritiPro thermal cycler for 3 min, followed by 3 min incubation at rt before the addition of LgBiT solution (200 nM LgBiT, 2% NP-40, protease inhibitors (Roche cOmplete, ethylenediaminetetraacetic acid (EDTA)-free Protease Inhibitor) in OptiMEM no phenol red (Gibco)) to lyse cells.
Background: With HiBiT, luminescence reflects the tagged protein that the partner subunit can reach.

Data set [9] in a line: in vitro. It counts as in vitro ADME. The note with it: human, Caco-2, pH 7.2. The method, then: Caco-2 cells [purchased from the German Collection of Microorganisms and Cell Cultures (DSMZ)] were seeded at a density of 4.5 × 10^4 cells/well on 24-well insert plates [0.4 μm pore size, 0.3 cm^2 (Costar)] and grown for 13–15 days in DMEM medium supplemented with 10% fetal calf serum (FCS), 1% GlutaMAX (100×, Gibco), 100 U/mL penicillin, 100 μg/mL streptomycin (Gibco), and 1% nonessential amino acids (100×, Thermo Fischer Scientific). […] The medium was changed every 2–3 days.
The bidirectional transport assay for the evaluation of Caco-2 permeability was undertaken in 24-well insert plates using a robotic system (Tecan). Before the assay was run, the culture medium was replaced by a transport medium (FCS-free HEPES carbonate transport buffer pH 7.2). For the assessment of monolayer integrity, the transepithelial electrical resistance (TEER) was measured. Only monolayers with a TEER of at least 400 Ω·cm^2 were used. Test compounds were pre-dissolved in DMSO and added either to the apical or basolateral compartment at a final concentration of 2 μM. The evaluation was performed in triplicate. […] The efflux ratio (ER) basolateral (B) to apical (A) was calculated by dividing Papp B–A by Papp A–B.

In data set [10] the test system is NF-κB activation. Nature of the data set: NF-κB reporter assay. It counts as cell-based. The note with it: HEK293T cells, up to 10 μM. The method, then:
Yang and colleagues reported that USP21 inhibition induces NF-κB activation by preventing deubiquitination of RIP1.[15] K63 ubiquitinated RIP1 is required for NF-κB activation, and thus USP21-mediated deubiquitination of RIP1 shuts down the NF-κB pathway.
Four hours after replating, cells were treated with compounds or DMSO (note: DMSO concentrations were kept consistent across all cells). Promega Dual-Luciferase Reporter Assay kit was then used to prepare samples for Firefly and Renilla signal measurement on a CLARIOstar microplate reader (BMG) 20 h after compound treatment. Relative luciferase units were calculated by normalizing the Firefly signal to the background Renilla signal, followed by normalization to DMSO controls of wild-type USP21.
In general terms: In a reporter assay the amount or activity of a reporter protein is the signal.

≈ marks a conversion by molar mass, not a printed value. Read-outs that look alike come from different tables or passages of the source. Where only a bound is given, the exact number is not on record here.

One may read the IC50 as the concentration that inhibits the measured activity by half. In general, ΔTm refers to the shift of the melting midpoint relative to a reference. Turning to `CC(C)C(NC(=O)C1CCCC1)C(=O)Nc1nnc(Cc2ccc([N+](=O)[O-])cc2)s1` (centres unmarked) [Compound 3, CC(C)C(NC(=O)C1CCCC1)C(=O)Nc2nnc(Cc3ccc(cc3)[N+](=O)[O-])s2], the half-maximal inhibitory concentration (IC50) in [1], in data set [2] and in data set [3] was > 25 µM each time. In addition, the chromatographic logD in data set [4] was 2.8. Further, the ΔTm at 100 µM in data set [5] worked out at 0.3 °C.

As usually defined, the Kd is the constant that tells how readily two partners part at equilibrium. Read a low Kd as higher affinity. Usually solubility stands for the concentration that dissolves in the medium under given conditions. High values mean much dissolved substance, low ones little dissolved substance. By Papp A→B is commonly meant the apparent permeability from the apical to the basolateral side of a cell layer. A high value points to fast passage. In data set [6], `N#Cc1ccc(Cc2nnc(NC(=O)[C@@H](CO)NC(=O)C3(C(F)(F)F)CCCCC3)s2)cc1` [Compound 18, OC[C@@H](NC(=O)C1(CCCCC1)C(F)(F)F)C(=O)Nc2nnc(Cc3ccc(cc3)C#N)s2] had a Kd of 0.0058 µM. The same compound registered a solubility at 24 h in data set [7] of 91.2 µM (≈ 43.9 µg/mL). In [4], the chromatographic logD was found to be 2.5. In addition, the “cellular thermal stabilization of USP21 (in words)” value in data set [8] is reported as “strong cellular target engagement”. Further, in [9] (2 μM, 2 h), the Papp A→B at 2 h, 2 µM turned out to be 1.4 ×10⁻⁶ cm/s. In addition, in [9] (Papp B–A / Papp A–B, read-out: Caco-2 efflux ratio (ER)), the efflux ratio at 2 h, 2 µM was 14. In addition, the “NF-κB activation (in words)” value in data set [10] is listed as “cellular activity was not observed”.

On to `O=C(CNC(=O)C1CCCC1)Nc1nnc(Cc2ccc([N+](=O)[O-])cc2)s1` [Compound 2, [O-][N+](=O)c1ccc(Cc2nnc(NC(=O)CNC(=O)C3CCCC3)s2)cc1], for which the IC50 in data set [1], in data set [2] and in [3] was > 25 µM each time. In data set [4], the chromatographic logD worked out at 2.1. In addition, in data set [5], the ΔTm at 100 µM was 3.5 °C.

Values taken from article PMC10009755, “Discovery and Characterization of BAY-805, a Potent and Selective Inhibitor of Ubiquitin-Specific Protease USP21” (Journal of Medicinal Chemistry, 2023).
